Earlier results on one compound are cited in patent publication US20050013753A1, “Heat-transfer systems” (priority 2003, published 2005).

Molecules are shown by their SMILES. Read-outs that look alike come from different tables or passages of the source. Some results are limits rather than exact numbers.

Data set [1] relates to rats. Particulars: in rats; DuPont MSDS.
For data set [2], the system named is rabbits. Particulars: in rabbits; DuPont MSDS.
For data set [3], the system named is rats. Particulars: in rats, DuPont MSDS.
For data set [4] the following is noted: animal data; DuPont MSDS.
The conditions of data set [5]: animal data; DuPont MSDS. The source holds these as a separate data set.
The conditions of data set [6]: animal data; DuPont MSDS. This is another data set of the same source.
Data set [7] concerns rats.
The subject of data set [8] is rats. Particulars: repeated inhalation exposure.
The conditions of data set [9]: animal data.
Data set [10] concerns bacterial cells. Particulars: in vitro.
The subject of data set [11] is mammalian cells. Particulars: in vitro.
For data set [12], the system named is mammalian cells.
Data set [13] concerns mouse. The settings on record: in vivo mouse.
For data set [14] the following is noted: in water; DuPont MSDS.
The conditions of data set [15]: DuPont MSDS.

On to `OCCCO` [1,3-Propanediol, 1,3-propanediol], for which the “Oral LD50” value in [1] is reported as 15,000 mg/kg. The “Dermal LD50” value in data set [2] is > 20,000 mg/kg. In [3], the “Inhalation 4 hour ALC” value is given as “Inhalation 4 hour ALC: >5.0 mg/L in rats”. The Eye irritation entry in [4] is on record as “not an eye irritant”. Further, the Skin irritation entry in [5] is on record as “slight skin irritant”. Besides, the Skin sensitization entry in data set [6] is “not a skin sensitizer”. The “Adverse effects to sperm and reproductive organs” value in data set [7] (oral repeated dose study in rats) is “no adverse effects to sperm and reproductive organs were observed”. Further, the “Changes in clinical pathology, pathology (including sperm analyses), or in-life measurements” value in data set [7] (rats, repeated oral gavage) is listed as “no toxicologically important changes”. Also, the NOEL in [7] (rats, repeated oral gavage, highest dose tested) is recorded as 1000 mg/kg/day; in data set [8], 1800 mg/m3. Further, the “Changes in clinical pathology, pathology, or in-life measurements” value in data set [8] is listed as “no toxicologically important changes”. Further, the “Toxicity to the fetus” value in data set [9] was “not uniquely toxic to the fetus”. For the same compound, the Mutagenicity result in data set [10] and in data set [11] was “not mutagenic” throughout. Moreover, the “Chromosome aberrations, repeat study” value in data set [12] (1,3-propanediol manufactured by DuPont) was “negative for all test conditions”. Moreover, in [12] (under certain conditions), the Chromosome aberrations result was “An increase in chromosome aberrations was observed”. Also, in [13], the Micronucleus assay result is listed as “negative”. Also, in data set [14], the pH entry was “pH: 4.5-7 in water. Color: Colorless”. For the same compound, in [15], the “Chemical Stability” value was “Chemical Stability: Stable at normal temperatures and storage conditions”.
